Test systems include A549 NSCLC; ACHN renal; CCRF-CEM leukemia; EKVX NSCLC; MDA-MB-231 breast; RPMI-8226 leukemia; SF-539 CNS; SK-MEL-28 melanoma; T-47D breast; TK-10 renal.
Test in all cases: growth of human tumour cells (NCI), 48 h

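Following 48 hours of exposure in 96-well plates, responses at five concentrations were used to interpolate endpoints linearly. The concentration for 50% growth inhibition is given as GI50. TGI denotes the concentration required for complete inhibition of growth.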

As to `Fc1ccc(/C=N/n2c(-c3ccc(F)c(Cl)c3)nn(CNc3ccccc3C(F)(F)F)c2=S)cc1`, the GI50 is 52.8 µM in the experiment on A549 NSCLC; 81.1 µM with ACHN renal; 51.6 µM in the experiment with CCRF-CEM leukemia; 37.2 µM in the experiment on EKVX NSCLC; 67 µM with MDA-MB-231 breast; 38.6 µM with RPMI-8226 leukemia. In addition, the GI50 is 93.2 µM in the experiment with SF-539 CNS, 97.2 µM in the experiment on SK-MEL-28 melanoma, 41.3 µM with T-47D breast and 38.7 µM in the experiment on TK-10 renal. The TGI in the experiment with A549 NSCLC, with ACHN renal, in the experiment with CCRF-CEM leukemia, in the experiment with EKVX NSCLC, in the experiment with MDA-MB-231 breast and in the experiment on RPMI-8226 leukemia was greater than 100 µM throughout. In addition, the TGI with SF-539 CNS, in the experiment with SK-MEL-28 melanoma, with T-47D breast and in the experiment on TK-10 renal was greater than 100 µM throughout.

`OCC1OC(n2cnc3c(N/N=C\c4ccccn4)ncnc32)C(O)C1O` (centres undefined): the GI50 with A549 NSCLC is 0.399 µM; in the experiment on ACHN renal, 0.2 µM; with CCRF-CEM leukemia, 0.0338 µM; with EKVX NSCLC it was 0.49 µM; with MDA-MB-231 breast, 0.0781 µM; in the experiment on RPMI-8226 leukemia it was 0.736 µM. Also, the GI50 with SF-539 CNS is 0.318 µM; in the experiment on SK-MEL-28 melanoma, 0.995 µM; in the experiment with T-47D breast, 0.282 µM; with TK-10 renal, 0.159 µM. The TGI is greater than 100 µM in the experiment on A549 NSCLC; 1.78 µM in the experiment with ACHN renal; greater than 100 µM in the experiment on CCRF-CEM leukemia; 97 µM in the experiment with EKVX NSCLC; greater than 57.3 µM in the experiment on MDA-MB-231 breast; greater than 25.3 µM in the experiment with RPMI-8226 leukemia. In addition, the TGI in the experiment on SF-539 CNS was 2.27 µM; with SK-MEL-28 melanoma, greater than 100 µM; in the experiment with T-47D breast, 21 µM; in the experiment with TK-10 renal, greater than 100 µM.

In the case of `O=C(/C=C/c1cc2ccccc2[nH]c1=O)/C=C/c1cc2ccccc2[nH]c1=O`, the TGI in the experiment on A549 NSCLC is greater than 59.2 µM; in the experiment on ACHN renal it was greater than 95.3 µM; in the experiment with CCRF-CEM leukemia, greater than 100 µM; in the experiment with EKVX NSCLC, greater than 100 µM; with MDA-MB-231 breast it was greater than 100 µM; with RPMI-8226 leukemia it was greater than 40.1 µM. Besides, the TGI with SF-539 CNS is greater than 75.9 µM; with SK-MEL-28 melanoma, greater than 66.5 µM; in the experiment on T-47D breast, greater than 100 µM; in the experiment on TK-10 renal it was greater than 60.7 µM. For the same molecule, the GI50 in the experiment with ACHN renal was 11.2 µM; in the experiment with CCRF-CEM leukemia it was 7.97 µM; with EKVX NSCLC, 22.5 µM; in the experiment on MDA-MB-231 breast it was 15.4 µM; in the experiment with RPMI-8226 leukemia, 4.02 µM; in the experiment on SF-539 CNS it was 9.13 µM. For the same molecule, the GI50 in the experiment on SK-MEL-28 melanoma was 14.8 µM; in the experiment with T-47D breast, 11.6 µM; in the experiment with TK-10 renal, 11.6 µM.

Take `N#CC1(C(N)=O)C(c2ccc(Cl)cc2)CC(=O)CC1c1ccc(Cl)cc1` (centres undefined): the GI50 is 18.1 µM in the experiment with A549 NSCLC; 21.8 µM with ACHN renal; 21.5 µM with CCRF-CEM leukemia; 15.5 µM with EKVX NSCLC; 13.8 µM with MDA-MB-231 breast; 18.1 µM in the experiment with RPMI-8226 leukemia. For the same molecule, the GI50 in the experiment on SF-539 CNS was 18.4 µM; in the experiment on SK-MEL-28 melanoma, 16.6 µM; in the experiment with T-47D breast, 17.4 µM; in the experiment on TK-10 renal it was 17.1 µM. Besides, the TGI in the experiment with A549 NSCLC was found to be 39.8 µM; in the experiment on ACHN renal, 57.8 µM; in the experiment on CCRF-CEM leukemia, 63.5 µM; in the experiment on EKVX NSCLC, 32.7 µM; with MDA-MB-231 breast it was 28.9 µM; in the experiment with RPMI-8226 leukemia it was 50.7 µM. In addition, the TGI with SF-539 CNS is 34.5 µM; in the experiment with SK-MEL-28 melanoma, 30.6 µM; in the experiment with T-47D breast it was 41.8 µM; in the experiment on TK-10 renal, 39.5 µM.

As for `CCCCCCCCCCCCCCCCCC[n+]1ccc2c(C)c3c(c(C)c2c1)c1cc(O)ccc1n3CC`, the GI50 in the experiment on A549 NSCLC is 1.28 µM; in the experiment with ACHN renal, 3.51 µM; in the experiment on CCRF-CEM leukemia, 3.27 µM; with EKVX NSCLC, 2.15 µM; with MDA-MB-231 breast, 2.76 µM; in the experiment with RPMI-8226 leukemia, 1.58 µM. Besides, the GI50 is 2.2 µM with SF-539 CNS, 1.91 µM in the experiment with SK-MEL-28 melanoma, 2.57 µM with T-47D breast and 1.49 µM with TK-10 renal. For the same molecule, the TGI stood at 5.47 µM with A549 NSCLC; 19.6 µM with ACHN renal; 34.2 µM in the experiment with CCRF-CEM leukemia; 9.93 µM with EKVX NSCLC; 12.7 µM with MDA-MB-231 breast; 17.5 µM in the experiment on RPMI-8226 leukemia. The TGI with SF-539 CNS is 5.59 µM; with SK-MEL-28 melanoma, 4.98 µM; in the experiment with T-47D breast, 27.3 µM; in the experiment on TK-10 renal, 4.13 µM.

Take `CN[C@@H](C)C(=O)N[C@H](C(=O)N1CCC[C@H]1C(=O)Nc1sc(-c2ncco2)nc1-c1ccccc1)C1CCCCC1`: the GI50 in the experiment with A549 NSCLC was 80.5 µM; in the experiment with ACHN renal, 19.3 µM; in the experiment on CCRF-CEM leukemia, 32.5 µM; in the experiment on EKVX NSCLC, 42.9 µM; with MDA-MB-231 breast it was 0.425 µM; with RPMI-8226 leukemia, 25.1 µM. For the same molecule, the GI50 with SF-539 CNS was 0.957 µM; with SK-MEL-28 melanoma it was 16.3 µM; in the experiment with T-47D breast, 24.3 µM; in the experiment on TK-10 renal, 57.5 µM. In addition, the TGI is greater than 100 µM in the experiment on A549 NSCLC; greater than 54.9 µM in the experiment with ACHN renal; greater than 100 µM with CCRF-CEM leukemia; greater than 100 µM in the experiment with EKVX NSCLC; 17.2 µM with MDA-MB-231 breast; greater than 89.9 µM in the experiment on RPMI-8226 leukemia. Moreover, the TGI in the experiment on SF-539 CNS was 17.8 µM; in the experiment with SK-MEL-28 melanoma, 33.9 µM; with T-47D breast, 82.4 µM; in the experiment on TK-10 renal it was greater than 100 µM.

Regarding `O=C1NC(=O)C(N2C(=O)c3ccccc3C2=O)CC1O` (centres undefined), the GI50 in the experiment with A549 NSCLC, with ACHN renal, with CCRF-CEM leukemia, in the experiment on EKVX NSCLC, with MDA-MB-231 breast and in the experiment with RPMI-8226 leukemia was greater than 100 µM in each case. The GI50 in the experiment on SF-539 CNS, in the experiment on SK-MEL-28 melanoma, with T-47D breast and in the experiment with TK-10 renal was greater than 100 µM each time. Besides, the TGI with A549 NSCLC, in the experiment with ACHN renal, with CCRF-CEM leukemia, with EKVX NSCLC, with MDA-MB-231 breast and in the experiment with RPMI-8226 leukemia was greater than 100 µM throughout. The TGI in the experiment with SF-539 CNS, with SK-MEL-28 melanoma, in the experiment on T-47D breast and with TK-10 renal was greater than 100 µM each time.
